Laboratory results published in the supplement of paper PMC11451515.

What was measured:
Conditions in all cases: 48 h
SEM cells [1] = assay: cell viability relative to DMSO control; higher = less cytotoxic
Procedure, shortened: (§1)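 Viability is expressed as a percentage of DMSO wells within each plate, and cell-free wells serve as background. Seeding densities in the 1536-well plates (5 μl) were 500 cells/well for NOMO1 or SEM leukemia cells and 1000 cells/well for P12-Ichikawa. Each line was adapted for at least four passages in each medium. Library compounds in DMSO were pin-dosed at 47 μM to 0.79 nM (11 points, threefold), and CellTiter-Glo One luminescence was read after 48 h at 37°C.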

P12-Ichikawa [2] = assay: as above
Procedure, shortened: as §1

NOMO1 [3] = assay: as above
Procedure, shortened: as §1

SEM cells [4] = assay: AUC of viability dose-response curve (% viability x log10 dose units); higher = less sensitive
Procedure, shortened: (§2)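 In 1536-well plates, leukemia cells adapted to each medium (500 or 1000 cells/well) were exposed for 48 h at 37°C to library compounds in DMSO across 11 threefold doses, 47 μM down to 0.79 nM. Viability was read by CellTiter-Glo One luminescence and normalised per plate to DMSO and cell-free wells. A four-parameter log-logistic fit over log10 doses was integrated by trapezoidal rule. This yielded the area under the curve, with over-full-viability curves scaled and quality-control failures dropped.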

P12-Ichikawa [5] = assay: as above
Procedure, shortened: as §2

NOMO1 [6] = assay: as above
Procedure, shortened: as §2

O=C(O)C1=NC(C(=O)O)CC(/C=C/N2c3cc(O)c(OC4OC(CO)C(O)C(O)C4O)cc3CC2C(=O)O)=C1 (stereo unspecified)
cell viability [%]
Conditions | NOMO1 [3] | P12-Ichikawa [2] | SEM cells [1]
HPLM + 10% dialyzed FBS, 0.000781 µM | 111 | 104 | 109
HPLM + 10% dialyzed FBS, 0.00234 µM | 111 | 107 | 106
HPLM + 10% dialyzed FBS, 0.00702 µM | 115 | 104 | 110
HPLM + 10% dialyzed FBS, 0.0211 µM | 103 | 96.9 | 109
HPLM + 10% dialyzed FBS, 0.0632 µM | 117 | 98.5 | 101
HPLM + 10% dialyzed FBS, 0.19 µM | 106 | 104 | 113
HPLM + 10% dialyzed FBS, 0.569 µM | 99.1 | 106 | 112
HPLM + 10% dialyzed FBS, 1.71 µM | 109 | 102 | 104
HPLM + 10% dialyzed FBS, 5.12 µM | 98.7 | 96.8 | 103
HPLM + 10% dialyzed FBS, 15.4 µM | 107 | 98 | 95.9
HPLM + 10% dialyzed FBS, 46.1 µM | 109 | 98.4 | 103
RPMI 5 mM glucose + 10% FBS, 0.000781 µM | 86.4 | 97.2 | 102
RPMI 5 mM glucose + 10% FBS, 0.00234 µM | 86.7 | 110 | 107
RPMI 5 mM glucose + 10% FBS, 0.00702 µM | 94.2 | 106 | 101
RPMI 5 mM glucose + 10% FBS, 0.0211 µM | 99.4 | 99.1 | 113
RPMI 5 mM glucose + 10% FBS, 0.0632 µM | 119 | 95.8 | 101
RPMI 5 mM glucose + 10% FBS, 0.19 µM | 108 | 89.9 | 111
RPMI 5 mM glucose + 10% FBS, 0.569 µM | 98.4 | 90.8 | 115
RPMI 5 mM glucose + 10% FBS, 1.71 µM | 93.5 | 106 | 102
RPMI 5 mM glucose + 10% FBS, 5.12 µM | 94 | 96.5 | 102
RPMI 5 mM glucose + 10% FBS, 15.4 µM | 90.6 | 96.8 | 101
RPMI 5 mM glucose + 10% FBS, 46.1 µM | 104 | 97.4 | 97.2
RPMI 5 mM glucose + 10% dialyzed FBS, 0.000781 µM | 104 | 101 | 112
RPMI 5 mM glucose + 10% dialyzed FBS, 0.00234 µM | 101 | 99.2 | 113
RPMI 5 mM glucose + 10% dialyzed FBS, 0.00702 µM | 101 | 106 | 102
RPMI 5 mM glucose + 10% dialyzed FBS, 0.0211 µM | 113 | 102 | 118
RPMI 5 mM glucose + 10% dialyzed FBS, 0.0632 µM | 104 | 106 | 108
RPMI 5 mM glucose + 10% dialyzed FBS, 0.19 µM | 101 | 104 | 112
RPMI 5 mM glucose + 10% dialyzed FBS, 0.569 µM | 94.2 | 93.2 | 105
RPMI 5 mM glucose + 10% dialyzed FBS, 1.71 µM | 98.2 | 99.5 | 96.4
RPMI 5 mM glucose + 10% dialyzed FBS, 5.12 µM | 92.4 | 100 | 111
RPMI 5 mM glucose + 10% dialyzed FBS, 15.4 µM | 104 | 91.9 | 105
RPMI 5 mM glucose + 10% dialyzed FBS, 46.1 µM | 117 | 90.9 | 96.9

AUC of viability dose-response curve
Conditions | NOMO1 [6] | P12-Ichikawa [5] | SEM cells [4]
HPLM + 10% dialyzed FBS | 462 | 463 | 467
RPMI 5 mM glucose + 10% FBS | 465 | 450 | 466
RPMI 5 mM glucose + 10% dialyzed FBS | 421 | 462 | 461

CN1\C(=C(\O)C2=CC=CC=C2[S+]1([O-])=O)C(=O)NC3=NC=C(C)S3
cell viability [%]
Conditions | NOMO1 [3] | P12-Ichikawa [2] | SEM cells [1]
HPLM + 10% dialyzed FBS, 0.000781 µM | 101 | 95 | 94.9
HPLM + 10% dialyzed FBS, 0.00234 µM | 111 | 95.7 | 94.8
HPLM + 10% dialyzed FBS, 0.00702 µM | 101 | 93.9 | 98.2
HPLM + 10% dialyzed FBS, 0.0211 µM | 114 | 94.6 | 103
HPLM + 10% dialyzed FBS, 0.0632 µM | 99.5 | 99.3 | 87.8
HPLM + 10% dialyzed FBS, 0.19 µM | 116 | 100 | 85.2
HPLM + 10% dialyzed FBS, 0.569 µM | 113 | 98.4 | 90.2
HPLM + 10% dialyzed FBS, 1.71 µM | 116 | 98.3 | 83.1
HPLM + 10% dialyzed FBS, 5.12 µM | 102 | 101 | 99.9
HPLM + 10% dialyzed FBS, 15.4 µM | 86.1 | 97.5 | 96.7
HPLM + 10% dialyzed FBS, 46.1 µM | 116 | 112 | 102
RPMI 5 mM glucose + 10% FBS, 0.000781 µM | 81.1 | 91.8 | 74.8
RPMI 5 mM glucose + 10% FBS, 0.00234 µM | 91.5 | 91.7 | 81.5
RPMI 5 mM glucose + 10% FBS, 0.00702 µM | 88.4 | 88 | 94.5
RPMI 5 mM glucose + 10% FBS, 0.0211 µM | 91.7 | 86 | 97.7
RPMI 5 mM glucose + 10% FBS, 0.0632 µM | 98.7 | 93.8 | 78
RPMI 5 mM glucose + 10% FBS, 0.19 µM | 96.8 | 88.8 | 90.2
RPMI 5 mM glucose + 10% FBS, 0.569 µM | 101 | 84.8 | 103
RPMI 5 mM glucose + 10% FBS, 1.71 µM | 88.3 | 89 | 78.3
RPMI 5 mM glucose + 10% FBS, 5.12 µM | 96.7 | 95.4 | 104
RPMI 5 mM glucose + 10% FBS, 15.4 µM | 99.3 | 96.7 | 84
RPMI 5 mM glucose + 10% FBS, 46.1 µM | 95.9 | 112 | 91.3
RPMI 5 mM glucose + 10% dialyzed FBS, 0.000781 µM | 84.2 | 79.3 | 77.4
RPMI 5 mM glucose + 10% dialyzed FBS, 0.00234 µM | 86.3 | 92.8 | 99.6
RPMI 5 mM glucose + 10% dialyzed FBS, 0.00702 µM | 85.6 | 83.1 | 94.6
RPMI 5 mM glucose + 10% dialyzed FBS, 0.0211 µM | 81.9 | 91.4 | 97
RPMI 5 mM glucose + 10% dialyzed FBS, 0.0632 µM | 81.5 | 96.2 | 80.7
RPMI 5 mM glucose + 10% dialyzed FBS, 0.19 µM | 93.6 | 87 | 107
RPMI 5 mM glucose + 10% dialyzed FBS, 0.569 µM | 79.6 | 92.7 | 99.9
RPMI 5 mM glucose + 10% dialyzed FBS, 1.71 µM | 76 | 87.8 | 95.1
RPMI 5 mM glucose + 10% dialyzed FBS, 5.12 µM | 91.9 | 80.8 | 106
RPMI 5 mM glucose + 10% dialyzed FBS, 15.4 µM | 92.7 | 90 | 107
RPMI 5 mM glucose + 10% dialyzed FBS, 46.1 µM | 91.8 | 86.7 | 108

AUC of viability dose-response curve
Conditions | NOMO1 [6] | P12-Ichikawa [5] | SEM cells [4]
HPLM + 10% dialyzed FBS | 476 | 416 | 447
RPMI 5 mM glucose + 10% FBS | 449 | 392 | 427
RPMI 5 mM glucose + 10% dialyzed FBS | 410 | 420 | 430
